Like-named read-outs stand apart in the source and are kept apart here.
Tests used:
[1] = test system: human gastric cancer strain (SC-2); conditions: 14 days, day 15, Test Example 3
Procedure: The resulting product was stirred with a stirrer at room temperature for about 10 minutes. […] Thereafter, ultrasonic treatment was performed under ice cooling for about 5 minutes, thereby obtaining a BOF-A2 drug liquid to be used at a dose of 14 mg/kg/day, 21 mg/kg/day, or 28 mg/kg/day. • (f) Experiment: The human gastric cancer strain (SC-2) was subcutaneously transplanted into the back of a BALB/cA-nu mouse and preliminarily proliferated therein. The proliferated strain was extracted, cut into about 2 mm square pieces with scissors in physiological saline, and subcutaneously inoculated to the right axillary region of mice of the same strain, 5 to 6 weeks of age, using a transplantation needle. […] Then, drug administration was initiated from the next day. Each of the test liquids shown in (a) to (e) above was administered orally to the mice in each of the test drug groups using a sonde for oral administration at a dose of 0.1 ml per 10 g body weight once a day for 14 continuous days. In the same manner as the above, the cancer-bearing mice in the control group were subjected to oral administration of only 0.5% HPMC liquid for 14 continuous days.
The tumor volume of each mouse in each group before the initiation of the treatment, on day 3, day 5, day 8 (1 week after), day 11, and day 15 (2 weeks after), i.e., after termination of the administration, was calculated using Equation 1 below, and respective relative tumor volume (RTV) relative to the tumor volume at the time of initiation of the treatment was calculated. In relation to the antitumor effect, the average value of the tumor proliferation inhibition ratio (IR; %) was calculated from the average tumor volume of each treatment group on day 15 (after termination of the treatment) relative to that of the control group on day 15, using Equation 2. […] Along therewith, a weight change ratio was calculated from the body weight of the mice at the time of the termination of the drug administration relative to the body weight of the mice at the time of the initiation of the administration, using Equation 3. […] Tumor volume(mm^3)=(major axis)×(minor axis)^2×½ Equation 1: Tumor proliferation inhibition ratio(IR, %)=[1−(average tumor volume of treatment group)/(average tumor volume of control group)]×100 Equation 2: Average weight change ratio(%)=[(average weight on Day 15)−(average weight on Day 1)]/(average weight on Day 1)×100 Equation 3: […]
The resulting product was stirred with a stirrer at room temperature for about 10 minutes. […] The proliferated strain was extracted, cut into about 2 mm square pieces with scissors in physiological saline, and subcutaneously inoculated to the right axillary region of mice of the same strain, 5 to 6 weeks of age, using a transplantation needle. […] Then, drug administration was initiated from the next day. Each of the test liquids shown in (a) to (c) above was administered orally to the mice in each of the test drug groups using a sonde for oral administration at a dose of 0.1 ml per 10 g body weight once a day for 14 continuous days. In the same manner as the above, the cancer-bearing mice in the control group were subjected to oral administration of only 0.5% HPMC liquid for 14 continuous days.
The tumor volume of each mouse in each group before the initiation of the treatment, on day 3, day 5, day 8 (1 week after), day 11, and day 15 (2 weeks after), i.e., after termination of the administration, was calculated using Equation 1 below, and respective relative tumor volume (RTV) relative to the tumor volume at the time of initiation of the treatment was calculated. In relation to the antitumor effect, the average value of the tumor proliferation inhibition ratio (IR; %) was calculated from the average tumor volume of each treatment group on day 15 (after termination of the treatment) relative to that of the control group on day 15, using Equation 2.

[2] = test system: sarcoma 180 cells; assay: Inhibition of intracellular phosphorylation of 5-FU in cancer cells; format: cell-based, mouse; conditions: for inhibition at 10 µM / inhibition at 100 µM: Mus musculus, Sarcoma-180, 0.5 h
Procedure: (§1) • (a) Test liquid preparation 1: Compound I-2 or I-10 of the present invention was dissolved to a concentration of 1 mM in cold physiological saline. The resulting product was further diluted 10-fold with physiological saline, yielding a 100-μM solution. • (b) Test liquid preparation 2: As an OPRT inhibitor, which inhibits the phosphorylation of 5-FU, citrazinic acid (Citra.A.) was dissolved to a concentration of 1 mM in cold physiological saline, and further diluted 10-fold with physiological saline, yielding a 100-μM solution. • (c) Preparation of cancer cell suspension: Ascites-type sarcoma 180 cells were preliminarily transplanted intraperitoneally into an ICR mouse and proliferated therein for use in the test as raw (intact) cells. The proliferated cells were isolated and then washed with physiological saline. […] Immediately after the completion of the reaction, 4 mL of a cold Hanks solution was added to the reaction solution, and the cells were washed and separated by centrifugation. After this procedure was repeated twice, 2 mL of a cold 5% trichloroacetic acid (TCA) solution was added to the cell pellet to disrupt the cells, and 5-FU and its nucleotide metabolites were extracted. Subsequently, a portion of the nucleic acid extract was applied to a silica gel 60F254 plate and developed with a mixed liquid comprising chloroform-methanol-acetic acid (17:3:1) to isolate the nucleotide moiety. The radioactivity thereof was measured and the concentration of 5-FU phosphorylation was measured.
as §1, with “1: Compounds I-9, I-11, I-12, and I-13” for “1: Compound I-2 or I-10”, “invention were separately” for “invention was”, “saline. Each of the” for “saline. The”, “resulting products” for “resulting product”, “acid” for “acid (Citra.A.)”

[3] = Conc. 10 μM, 30 min. Incubation, 5-FU 2 μM, Table 6
[4] = Conc. 100 μM, 30 min. Incubation, 5-FU 2 μM, Table 6
[5] = Conc. 10 μM, 30 min. Incubation, 5-FU 2 μM, Table 6, read-out: Inhibition (%) of phosphorylation of 5-FU
[6] = Conc. 100 μM, 30 min. Incubation, 5-FU 2 μM, Table 6, read-out: Inhibition (%) of phosphorylation of 5-FU
[7] = concentration of 10 μM, reaction for 30 minutes, read-out: percent inhibition of intracellular phosphorylation of 5-FU
[8] = concentration of 100 μM, reaction for 30 minutes, read-out: percent inhibition of intracellular phosphorylation of 5-FU

| Compound | RNA Fraction [2, 3] | RNA Fraction [2, 4] | inhibition at 10 µM [2, 5] | inhibition at 100 µM [2, 6] | inhibition at 10 µM [2, 7] | inhibition at 100 µM [2, 8] | also measured |
| --- | --- | --- | --- | --- | --- | --- | --- |
| CCOCn1cc(F)c(=O)n(C(=O)c2cccc(C(=O)Oc3nc(OC(=O)c4ccccc4)ccc3C#N)c2)c1=O [BOF-A2, reference compound] |  |  |  |  |  |  | Average weight change (%) ([1]; 14 mg/kg/day oral): 3.16%; Tumor proliferation inhibition ratio (%) ([1]; 14 mg/kg/day oral): 51.0%; Average weight change (%) ([1]; 21 mg/kg/day oral): −7.48%; Tumor proliferation inhibition ratio (%) ([1]; 21 mg/kg/day oral): 70.9%; Average weight change (%) ([1]; 28 mg/kg/day oral): −20.58%; Tumor proliferation inhibition ratio (%) ([1]; 28 mg/kg/day oral): 72.4% |
| CCOCn1cc(F)c(=O)n(C(=O)c2cccc(C(=O)Oc3cc(O)c(Cl)cn3)c2)c1=O [Compound 8a, 3-{3-[4-hydroxy-5-chloro-2-pyridyloxycarbonyl]benzoyl}-1-ethoxymethyl-5-fluorouracil] |  |  |  |  |  |  | Average weight change (%) ([1]; 11.5 mg/kg/day oral): 0.34%; Tumor proliferation inhibition ratio (%) ([1]; 11.5 mg/kg/day oral): 52.8%; Average weight change (%) ([1]; 17.3 mg/kg/day oral): 2.32%; Tumor proliferation inhibition ratio (%) ([1]; 17.3 mg/kg/day oral): 58.1%; Average weight change (%) ([1]; 23.0 mg/kg/day oral): −18.11%; Tumor proliferation inhibition ratio (%) ([1]; 23.0 mg/kg/day oral): 77.7% |
| CCOCn1cc(F)c(=O)n(C(=O)c2cccc(C(=O)Oc3cc(OC(=O)c4cc(OC(=O)C(C)(C)C)nc(OC(=O)C(C)(C)C)c4)c(Cl)cn3)c2)c1=O [Compound I-12, 3-{3-[4-(2,6-dipivaloyloxyisonicotinoyloxy)-5-chloro-2-pyridyloxycarbonyl]benzoyl}-1-ethoxymethyl-5-fluorouracil] | 28.15 pmol/1 × 10^7 cells | 25.48 pmol/1 × 10^7 cells | 55.5% | 59.8% | 35 to 57% | 56 to 63% |  |
| CCOCn1cc(F)c(=O)n(C(=O)c2cccc(C(=O)Oc3cc(OC(=O)c4ccc(OC(=O)c5ccccc5)nc4OC(=O)c4ccccc4)c(Cl)cn3)c2)c1=O [Compound I-13, 3-{3-[4-(2,6-dibenzoyloxynicotinoyloxy)-5-chloro-2-pyridyloxycarbonyl]benzoyl}-1-ethoxymethyl-5-fluorouracil] | 26.63 pmol/1 × 10^7 cells | 25.68 pmol/1 × 10^7 cells | 58.1% | 59.4% | 35 to 57% | 56 to 63% |  |

Reference: patent US8889699B2, “5-fluorouracil derivative” (Delta-Fly Pharma, Inc., priority 2009, dated 2014)
